Assay results: US10806711B2 (priority 2011, dated 2020)
Entries after “also recorded” stand apart in the source; their conditions may differ.

Assays:
C57 WT mice = assay: Echocardiographic evaluation of contractility (EF) after bolus IV probenecid; type: in vivo, mouse; details: for peak change in EF: WT mice
Method: Echocardiographic evaluation. In order to obtain a dose response curve, male C57 WT (n=39) mice 12-16 weeks of age were anesthetized with isoflurane while intravenous jugular access (IV) was obtained under a microscope as previously described. Subsequently, an echocardiographic study with both M-mode and B-mode was obtained in parasternal long axis (PSLAX) as described below. […] Echocardiography—All echocardiographic studies were performed with a Vevo 2100 Ultrasound system (Visualsonics, Toronto Calif.) with an MS400 probe (30 MHz centerline frequency) and were post-processed at a separate workstation with Vevostrain software (Vevo 2100, v1.1.1 B1455, Visualsonic, Toronto, Canada). Images were obtained from PSLAX and short axis (SAX) views at depths between 2 and 10 mm in both M-mode and B-mode. All studies on mice exposed to I/R injury included M-mode, B-mode in PSLAX and strain imaging in SAX. While for the contractility studies, only M-mode measurements were obtained from the PSLAX. Strain imaging was performed from the B-mode images and regional radial strain and circumferential displacement were measured by regional wall and summed average from the SAX images. From the M-mode images, left ventricular cavity size and wall thickness was measured and the ejection fraction (EF) and fractional shortening (FS) calculations were obtained using the Vevo software. The change in the EF, FS, as well as strain derived parameters was obtained by subtracting the baseline value from each individual subject against subsequent time-points. In addition, the average change from baseline for each time point between 5 and 30 minutes was determined for each mouse, with measurements being taken every 5 minutes. These averages were compared between the different groups.

HL-1 cells = assay: Imaging and measurement of Ca2+ fluorescence in HL-1 cells; type: cell-based
Method: Imaging and measurement of Ca2+ fluorescence.—HL-1 cells were obtained as described above. Dissociated cells were plated on glass cover-slip (GG-25-polylysine #1, Neuvitro, Calif.) placed inside each well of six-well plates (BD Falcon). Acquisition of images were done at 40-65 Hz by using LSM 510 Meta system equipped with the inverted Axiovert 200 M BP (Carl Zeiss Microscopy, LLC, Thornwood, N.Y.) and LSMS Software. Image acquisition was done with Plan-Apochromat 40×/water with frame size of 512 (X) and 256(Y). To optimize the speed of acquisition, the acquisition area was limited to a few cells. […] Peak fluorescence before perfusion (F0) and that after perfusion (F) were determined manually after acquisition of images from the saved LSM files. Circular areas within the cytosol of each cell of the saved images over the entire duration of respective experiments were used to determine changes in fluorescence before and after perfusion. Normalized fluorescence, determined as a quotient of F/F0, was used as a variable to compare the relative changes in fluorescence at different incremental concentrations during statistical analyses. […]

mice after I/R injury = assay: Ischemia/Reperfusion followed by oral probenecid (echocardiography); type: in vivo, mouse
Method: Ischemia/Reperfusion methods—Mice were anesthetized with sodium pentobarbital and the heart exposed through a left thoracotomy at the level of the fourth intercostal space. The mice were intubated and placed on a mini-ventilator (Harvard apparatus, Holliston, Mass.). A loop occluder was placed around the left anterior descending artery (LAD), and tightened, occluding it for either 30 minutes or 45 minutes. After surgery, the thorocotomy was sutured in layers, and the animal was allowed to recover. Echocardiography methods—All echocardiographic studies were performed as previously described for Example 1.

healthy pig model = assay: Cardiac function by echocardiography in healthy porcine model; type: in vivo
[1] = test system: subjects with uncomplicated congestive heart failure; details: 2 g/day or 4 g/day orally over several days; cited from earlier work

## CCCN(CCC)S(=O)(=O)c1ccc(C(=O)O)cc1 [probenecid]
C57 WT mice; 75 mg/kg bolus IV
  peak change in EF: 5.26±3.35
C57 WT mice; 100 mg/kg bolus IV
  peak change in EF: 8.40±2.80
C57 WT mice; 200 mg/kg IV, n=5
  time EF remained at an elevated state: at least 1 hour
C57 WT mice; 200 mg/kg IV, n=5, evaluated for a longer period (at least 1 hour)
  average increase in EF over baseline: 8.9±2.57
C57 WT mice; FIG. 1B legend
  echocardiographic changes (FIG. 1B): did not result in any echocardiographic changes
C57 WT mice; all doses at or above 75 mg/kg IV
  time after bolus injection at which increased contractility was noted: ≤ 5 min
C57 WT mice; bolus IV, measured at 5 minute intervals for 30 minutes total
  estimated EC50 of dose dependent increase in contractility (EF): 49.33 mg/kg
HL-1 cells; higher probenecid concentrations (up to 10^−4)
  median peak cytosolic fluorescence after vs before perfusion: significantly higher
HL-1 cells; probenecid 10^−8
  median peak cytosolic fluorescence before vs after perfusion: No significant differences
Mice after I/R injury; oral in water after 45 min I/R, water 0.018±0.018, p<0.05
  radial displacement: 0.071±0.013
Mice after I/R injury; oral in water after 45 min I/R, water 22.55±4.47, p=0.076
  LV cavity size (LV Vol;d) increase: 7.59±6.08
Mice after I/R injury; oral in water after I/R (FIG. 11D legend)
  change in EF: slight (but not statistically significant) increase in the change in EF
Healthy pig model; bolus of 5 mg/kg IV, 5 mg/kg
  cardiac function (EF) by echocardiography: rapid increase in EF
Healthy pig model; continuous drip 5 mg/kg/hr (first 60 minutes) and 10 mg/kg/hr (second thirty minutes)
  cardiac function by echocardiography: improves function; also recorded: improvement in cardiac function
[1]
  diuretic effect: strong diuretic effect
